Activity calls are given as the source filed them.
Key:
[1] = system: Mus musculus; experiment: Neurotoxicity in ip dosed albino CF1 mouse assessed as minimum dose required to cause toxicity after 0.5 hrs by rotarod test; assay type: organism-based; details: in vivo
[2] = system: Mus musculus; experiment: Anticonvulsant activity in albino CF1 mouse assessed as protection against maximal electroshock-induced seizures at 3 mg/kg, ip after 0.5 hrs; assay type: functional, organism-based; design: dose 3 mg/kg
[3] = system: Mus musculus; experiment: Neurotoxicity in albino CF1 mouse assessed as minimal motor impairment at 30 mg/kg, ip after 0.5 hrs by rotarod test; assay type: toxicity, organism-based; design: dose 30 mg/kg, route intraperitoneal; details: in vivo
[4] = system: Mus musculus; experiment: Anticonvulsant activity against subcutaneous metrazole-induced seizures in ip dosed albino CF1 mouse assessed as minimum effective dose after 4 hrs; assay type: functional; details: albino CF1, 4 h, read-out: MED
[5] = system: Mus musculus; experiment: Anticonvulsant activity in albino CF1 mouse assessed as protection against maximal electroshock-induced seizures at 10 mg/kg, ip after 0.5 hrs; assay type: functional, organism-based; design: dose 10 mg/kg
[6] = system: Mus musculus; experiment: Neurotoxicity in albino CF1 mouse assessed as minimal motor impairment at 3 mg/kg, ip after 0.5 hrs by rotarod test; assay type: toxicity, organism-based; design: dose 3 mg/kg, route intraperitoneal; details: in vivo
[7] = system: Mus musculus; experiment: Neurotoxicity in albino CF1 mouse assessed as minimal motor impairment at 10 mg/kg, ip after 0.5 hrs by rotarod test; assay type: toxicity, organism-based; design: dose 10 mg/kg, route intraperitoneal; details: in vivo
[8] = system: Mus musculus; experiment: Neurotoxicity in albino CF1 mouse assessed as minimal motor impairment at 30 mg/kg, ip after 4 hrs by rotarod test; assay type: toxicity, organism-based; design: dose 30 mg/kg, route intraperitoneal; details: in vivo
[9] = system: Mus musculus; experiment: Neurotoxicity in albino CF1 mouse assessed as minimal motor impairment at 100 mg/kg, ip after 4 hrs by rotarod test; assay type: toxicity, organism-based; design: dose 100 mg/kg, route intraperitoneal; details: in vivo
[10] = system: Mus musculus; experiment: Anticonvulsant activity in albino CF1 mouse assessed as protection against maximal electroshock-induced seizures at 300 mg/kg, ip after 0.5 hrs; assay type: functional, organism-based; design: dose 300 mg/kg
[11] = system: Mus musculus; experiment: Anticonvulsant activity in albino CF1 mouse assessed as protection against maximal electroshock-induced seizures at 300 mg/kg, ip after 4 hrs; assay type: functional, organism-based; design: dose 300 mg/kg
[12] = system: Mus musculus; experiment: Anticonvulsant activity in albino CF1 mouse assessed as protection against subcutaneous metrazole-induced seizures at 30 mg/kg, ip after 0.5 hrs; assay type: functional, organism-based; design: dose 30 mg/kg
[13] = system: Mus musculus; experiment: Anticonvulsant activity in albino CF1 mouse assessed as protection against subcutaneous metrazole-induced seizures at 30 mg/kg, ip after 4 hrs; assay type: functional, organism-based; design: dose 30 mg/kg
[14] = system: Mus musculus; experiment: Anticonvulsant activity in albino CF1 mouse assessed as protection against subcutaneous metrazole-induced seizures at 100 mg/kg, ip after 0.5 hrs; assay type: functional, organism-based; design: dose 100 mg/kg
[15] = system: Mus musculus; experiment: Anticonvulsant activity in albino CF1 mouse assessed as protection against subcutaneous metrazole-induced seizures at 100 mg/kg, ip after 4 hrs; assay type: functional, organism-based; design: dose 100 mg/kg
[16] = system: Mus musculus; experiment: Anticonvulsant activity in albino CF1 mouse assessed as protection against subcutaneous metrazole-induced seizures at 300 mg/kg, ip after 0.5 hrs; assay type: functional, organism-based; design: dose 300 mg/kg
[17] = system: Mus musculus; experiment: Anticonvulsant activity in albino CF1 mouse assessed as protection against subcutaneous metrazole-induced seizures at 300 mg/kg, ip after 4 hrs; assay type: functional, organism-based; design: dose 300 mg/kg
[18] = system: Mus musculus; experiment: Anticonvulsant activity in albino CF1 mouse assessed as protection against maximal electroshock-induced seizures at 30 mg/kg, ip after 0.5 hrs; assay type: functional, organism-based; design: dose 30 mg/kg
[19] = system: Mus musculus; experiment: Anticonvulsant activity in albino CF1 mouse assessed as protection against maximal electroshock-induced seizures at 30 mg/kg, ip after 4 hrs; assay type: functional, organism-based; design: dose 30 mg/kg
[20] = system: Mus musculus; experiment: Neurotoxicity in ip dosed albino CF1 mouse assessed as minimum dose required to cause toxicity after 4 hrs by rotarod test; assay type: organism-based; details: in vivo
[21] = system: Mus musculus; experiment: Anticonvulsant activity against maximal electroshock-induced seizures in ip dosed albino CF1 mouse assessed as minimum effective dose after 0.5 hrs; assay type: functional; details: read-out: MED
[22] = system: Mus musculus; experiment: Anticonvulsant activity against maximal electroshock-induced seizures in ip dosed albino CF1 mouse assessed as minimum effective dose after 4 hrs; assay type: functional; details: read-out: MED
[23] = system: Mus musculus; experiment: Anticonvulsant activity against subcutaneous metrazole-induced seizures in ip dosed albino CF1 mouse assessed as minimum effective dose after 0.5 hrs; assay type: functional; details: albino CF1, 0.5 h, read-out: MED
[24] = system: Mus musculus; experiment: Neurotoxicity in albino CF1 mouse assessed as minimal motor impairment at 30 to 300 mg/kg, ip after 4 hrs by rotarod test; details: in vivo
[25] = system: Mus musculus; experiment: Neurotoxicity in albino CF1 mouse assessed as minimal motor impairment at 30 to 300 mg/kg, ip after 0.5 hrs by rotarod test; details: in vivo
[26] = system: Mus musculus; experiment: Anticonvulsant activity in albino CF1 mouse assessed as protection against subcutaneous metrazole-induced seizures at 150 mg/kg, ip after 1 hr; assay type: functional, organism-based; design: dose 150 mg/kg
[27] = system: Mus musculus; experiment: Anticonvulsant activity in albino CF1 mouse assessed as protection against maximal electroshock-induced seizures at 100 mg/kg, ip after 0.5 hrs; assay type: functional, organism-based; design: dose 100 mg/kg
[28] = system: Mus musculus; experiment: Anticonvulsant activity in albino CF1 mouse assessed as protection against subcutaneous metrazole-induced seizures at 300 mg/kg, ip after 1 hr; assay type: functional, organism-based; design: dose 300 mg/kg
[29] = system: Mus musculus; experiment: Neurotoxicity in albino CF1 mouse assessed as minimal motor impairment at 140 mg/kg, ip after 1 hr by rotarod test; assay type: toxicity, organism-based; design: dose 140 mg/kg, route intraperitoneal; details: in vivo
[30] = system: Mus musculus; experiment: Anticonvulsant activity ip dosed albino CF1 mouse assessed as protection against maximal electroshock-induced seizures after 1 hr; assay type: functional
[31] = species on record: Mus musculus; experiment: Protective index, ratio of TD50 for albino CF1 mouse after 1 hr by rotarod test to ED50 for albino CF1 mouse by maximal electroshock seizures test after 1 hr; assay type: functional
[32] = system: Mus musculus; experiment: Anticonvulsant activity in albino CF1 mouse assessed as protection against maximal electroshock-induced seizures at 60 mg/kg, ip after 1 hr; assay type: functional, organism-based; design: dose 60 mg/kg
[33] = Neurotoxicity in ip dosed albino CF1 mouse assessed as minimal motor impairment after 1 hr by rotarod test; assay type: toxicity, organism-based; details: in vivo
[34] = system: Mus musculus; experiment: Anticonvulsant activity in albino CF1 mouse assessed as protection against subcutaneous metrazole-induced seizures at 75 mg/kg, ip after 1 hr; assay type: functional, organism-based; design: dose 75 mg/kg
[35] = biological target: Sodium channel protein type 2 subunit alpha (Homo sapiens, UniProt Q99250); experiment: Inhibition of human NaV1.2 expressed in HEK cells at -60 mV holding potential by patch clamp recording technique; assay type: cell-based, HEK293
[36] = species on record: Mus musculus; experiment: Protective index, ratio of TD50 for albino CF1 mouse by rotarod test to ED50 for albino CF1 mouse by maximal electroshock seizures test; assay type: functional
[37] = system: Rattus norvegicus; experiment: Neurotoxicity in albino Sprague-Dawley rat assessed as minimal motor impairment at 30 mg/kg, po by rotarod test; assay type: toxicity, organism-based; design: dose 30 mg/kg, route oral; details: in vivo
[38] = system: Mus musculus; experiment: Anticonvulsant activity ip dosed albino CF1 mouse assessed as protection against maximal electroshock-induced seizures after 0.25 hrs; assay type: functional
[39] = system: Rattus norvegicus; experiment: Anticonvulsant activity in albino Sprague-Dawley rat assessed as protection against maximal electroshock-induced seizures at 30 mg/kg, po after 0.25 hrs; assay type: functional, organism-based; design: dose 30 mg/kg
[40] = system: Rattus norvegicus; experiment: Anticonvulsant activity in albino Sprague-Dawley rat assessed as protection against maximal electroshock-induced seizures at 30 mg/kg, po after 0.5 hrs; assay type: functional, organism-based; design: dose 30 mg/kg
[41] = system: Rattus norvegicus; experiment: Anticonvulsant activity in albino Sprague-Dawley rat assessed as protection against maximal electroshock-induced seizures at 30 mg/kg, po after 1 hr; assay type: functional, organism-based; design: dose 30 mg/kg
[42] = system: Rattus norvegicus; experiment: Anticonvulsant activity in albino Sprague-Dawley rat assessed as protection against maximal electroshock-induced seizures at 30 mg/kg, po after 2 hrs; assay type: functional, organism-based; design: dose 30 mg/kg
[43] = system: Rattus norvegicus; experiment: Anticonvulsant activity in albino Sprague-Dawley rat assessed as protection against maximal electroshock-induced seizures at 30 mg/kg, po after 4 hrs; assay type: functional, organism-based; design: dose 30 mg/kg
[44] = system: Mus musculus; experiment: Neurotoxicity in albino CF1 mouse assessed as minimal motor impairment at 100 mg/kg, ip after 0.5 hrs by rotarod test; assay type: toxicity, organism-based; design: dose 100 mg/kg, route intraperitoneal; details: in vivo
[45] = system: Mus musculus; experiment: Neurotoxicity in albino CF1 mouse assessed as minimal motor impairment at 300 mg/kg, ip after 0.5 hrs by rotarod test; assay type: toxicity, organism-based; design: dose 300 mg/kg, route intraperitoneal; details: in vivo
[46] = system: Mus musculus; experiment: Neurotoxicity in albino CF1 mouse assessed as minimal motor impairment at 300 mg/kg, ip after 4 hrs by rotarod test; assay type: toxicity, organism-based; design: dose 300 mg/kg, route intraperitoneal; details: in vivo
[47] = system: Mus musculus; experiment: Anticonvulsant activity in albino CF1 mouse assessed as protection against maximal electroshock-induced seizures at 100 mg/kg, ip after 2 hrs; assay type: functional, organism-based; design: dose 100 mg/kg
[48] = system: Mus musculus; experiment: Neurotoxicity in albino CF1 mouse assessed as minimal motor impairment at 100 mg/kg, ip after 0.25 hrs by rotarod test; assay type: toxicity, organism-based; design: dose 100 mg/kg, route intraperitoneal; details: in vivo
[49] = system: Mus musculus; experiment: Neurotoxicity in albino CF1 mouse assessed as minimal motor impairment at 100 mg/kg, ip after 1 hr by rotarod test; assay type: toxicity, organism-based; design: dose 100 mg/kg, route intraperitoneal; details: in vivo
[50] = system: Mus musculus; experiment: Neurotoxicity in albino CF1 mouse assessed as minimal motor impairment at 100 mg/kg, ip after 2 hrs by rotarod test; assay type: toxicity, organism-based; design: dose 100 mg/kg, route intraperitoneal; details: in vivo
[51] = system: Mus musculus; experiment: Anticonvulsant activity in albino CF1 mouse assessed as protection against maximal electroshock-induced seizures at 100 mg/kg, ip after 4 hrs; assay type: functional, organism-based; design: dose 100 mg/kg
[52] = system: Mus musculus; experiment: Neurotoxicity in albino CF1 mouse assessed as minimal motor impairment at 30 to 300 mg/kg, po after 4 hrs by rotarod test; assay type: toxicity, organism-based; design: dose 30-300 mg/kg, route oral; details: in vivo

Sequence of Sodium channel protein type 2 subunit alpha (Q99250 whole entry): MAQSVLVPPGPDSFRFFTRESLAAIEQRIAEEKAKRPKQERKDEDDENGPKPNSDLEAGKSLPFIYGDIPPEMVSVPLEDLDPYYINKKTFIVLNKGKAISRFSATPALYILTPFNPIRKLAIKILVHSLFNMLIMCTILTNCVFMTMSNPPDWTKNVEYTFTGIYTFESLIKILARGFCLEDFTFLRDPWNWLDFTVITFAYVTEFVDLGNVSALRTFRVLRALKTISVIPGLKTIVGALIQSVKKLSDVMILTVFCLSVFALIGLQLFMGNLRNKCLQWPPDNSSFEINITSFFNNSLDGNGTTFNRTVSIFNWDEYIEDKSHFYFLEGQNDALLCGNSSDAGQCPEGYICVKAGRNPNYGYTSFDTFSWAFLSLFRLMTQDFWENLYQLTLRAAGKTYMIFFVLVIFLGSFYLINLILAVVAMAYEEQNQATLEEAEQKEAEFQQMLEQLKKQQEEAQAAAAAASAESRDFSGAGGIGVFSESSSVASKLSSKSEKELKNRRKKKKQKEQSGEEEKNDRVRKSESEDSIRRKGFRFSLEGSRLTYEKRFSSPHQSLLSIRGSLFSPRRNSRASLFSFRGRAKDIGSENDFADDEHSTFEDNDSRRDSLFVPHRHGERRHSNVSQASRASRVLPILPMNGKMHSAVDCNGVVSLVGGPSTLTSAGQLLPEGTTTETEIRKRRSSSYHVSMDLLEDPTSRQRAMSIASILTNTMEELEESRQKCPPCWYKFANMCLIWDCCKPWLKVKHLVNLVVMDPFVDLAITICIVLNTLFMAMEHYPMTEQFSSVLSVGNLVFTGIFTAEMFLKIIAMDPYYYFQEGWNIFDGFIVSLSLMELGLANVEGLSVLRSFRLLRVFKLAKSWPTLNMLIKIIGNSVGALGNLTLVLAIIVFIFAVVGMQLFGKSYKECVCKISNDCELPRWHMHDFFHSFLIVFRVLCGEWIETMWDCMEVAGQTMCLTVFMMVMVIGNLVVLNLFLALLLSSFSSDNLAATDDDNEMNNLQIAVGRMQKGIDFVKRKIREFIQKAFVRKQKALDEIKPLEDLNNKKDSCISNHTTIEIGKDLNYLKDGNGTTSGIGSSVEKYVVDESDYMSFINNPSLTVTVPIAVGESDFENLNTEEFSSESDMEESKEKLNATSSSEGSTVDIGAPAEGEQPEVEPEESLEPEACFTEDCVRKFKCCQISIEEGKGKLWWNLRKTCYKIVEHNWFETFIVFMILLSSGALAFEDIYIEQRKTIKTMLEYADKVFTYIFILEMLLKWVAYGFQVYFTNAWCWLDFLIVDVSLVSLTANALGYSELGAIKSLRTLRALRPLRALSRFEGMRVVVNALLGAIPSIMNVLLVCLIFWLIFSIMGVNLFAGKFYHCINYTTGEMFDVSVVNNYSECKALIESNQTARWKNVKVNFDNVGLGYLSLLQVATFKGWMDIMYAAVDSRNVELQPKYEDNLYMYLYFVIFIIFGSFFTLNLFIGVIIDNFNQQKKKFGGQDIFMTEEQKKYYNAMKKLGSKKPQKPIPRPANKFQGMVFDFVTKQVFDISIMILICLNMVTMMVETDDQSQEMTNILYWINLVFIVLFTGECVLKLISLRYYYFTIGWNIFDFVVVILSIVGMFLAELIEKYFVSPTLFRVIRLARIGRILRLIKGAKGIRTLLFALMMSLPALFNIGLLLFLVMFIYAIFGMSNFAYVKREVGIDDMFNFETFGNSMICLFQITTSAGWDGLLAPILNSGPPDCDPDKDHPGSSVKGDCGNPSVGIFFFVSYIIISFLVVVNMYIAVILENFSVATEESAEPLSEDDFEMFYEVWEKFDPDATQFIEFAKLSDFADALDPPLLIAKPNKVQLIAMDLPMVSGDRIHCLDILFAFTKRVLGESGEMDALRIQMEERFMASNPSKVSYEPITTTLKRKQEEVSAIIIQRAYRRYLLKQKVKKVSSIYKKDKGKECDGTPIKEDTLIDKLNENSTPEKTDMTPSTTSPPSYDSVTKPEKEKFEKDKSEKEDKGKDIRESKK

FC(F)(F)c1cccc(-c2c[nH]c(-c3ccccc3)n2)c1
100 mg/kg: MED [1] | MED [20] | minimal effective dose [22]
Non-toxic: Activity [3] | Activity [6] | Activity [7] | Activity [8] | Activity [9] | Activity [24] | Activity [25]
active: Activity [10] | Activity [11] | Activity [18]
inactive: Activity [2] | Activity [5] | Activity [12] | Activity [13] | Activity [14] | Activity [15] | Activity [16] | Activity [17] | Activity [19]
> 300 mg/kg: minimal effective dose [4] | minimal effective dose [23]
> 30 mg/kg: minimal effective dose [21]

FC(F)(F)c1ccc(-c2nc(-c3ccccc3)c[nH]2)cc1
inactive: Activity [26] | Activity [27] | Activity [28] | Activity [32] | Activity [34] | Activity [39] | Activity [40] | Activity [41] | Activity [42] | Activity [43] | Activity [47] | Activity [51] | Activity [12] | Activity [13] | Activity [14] | Activity [15] | Activity [16] | Activity [17] | Activity [18] | Activity [19]
>3.8: PI [36]
100 mg/kg: minimal effective dose [21] | minimal effective dose [22]
10.1 µM: IC50 [35]
130 mg/kg: ED50 [30] | ED50 [38]
active: Activity [10] | Activity [11]
> 500 mg/kg: TD50 at 1 h [33]
> 3.8: PI [31]
Non-toxic: Activity [3] | Activity [29] | Activity [37] | Activity [8] | Activity [44] | Activity [9] | Activity [45] | Activity [46] | Activity [48] | Activity [49] | Activity [50] | Activity [52] | Activity [25]
> 300 mg/kg: MED [1] | minimal effective dose [4] | MED [20]
